Results on 3 compounds are retold here after patent US3997403A, “Antibiotic G-418 and the production thereof” (Schering Corporation, priority 1975, dated 1976).

Where a name gives a salt, the structure may show the parent alone.

The subject of one assay is E. Histolytica. Put plainly: Oral activity against experimental cecal E. Histolytica infections in rats. The following applies: for A.D.I. (average degree of infection): scale 0 to 4, controls averaged 2.2. The class given is in vivo, male Royal Hart rats. From the text:
Table VII and Table VIII set forth in vivo test results which illustrate the antiprotozoal activity of Antibiotic G-418. The host for the tests were recently weaned male Royal Hart rats (3-4 weeks old) weighing about 50-70 g. The test procedure is a modification of one described by R. J. Schnitzer on pages 355-443 in Experimental Chemotherapy, Vol. 1, Academic Press, New York (1963).
*A.D.I. -- defined as the average degree of infection based upon gross
observations of pathological changes in the cecum and microscopic
observations of the number of amoebae found. These observations are
recorded on a scale of from zero to four, zero representing a
substantially normal cecum. Untreated but infected controls range from
about two to four. In the data set forth the controls averaged 2.2.

In assay [1] the test system is Bacillus subtilis A.T.C.C. 6633. Description: standard disc plate microbiological assay. The class given is cell-based. The note with it: against the standard antibiotic base (1000 mcg/mg). From the text:
The assay is a standard disc plate assay using Difco Antibiotic Medium No. 5 and Bacillus subtilis A.T.C.C. 6633 as the test organism. The physical conditions of the test are substantially those described for neomycin (Grove and Randall), Assay Methods of Antibiotics published by Medical Encyclopedia Incorporated (1955). The assay is run against a standard preparation of Antibiotic G-418 having a defined potency of 1000 mcg/mg. […] The standard antibiotic sulfate salt assays about 750 mcg/mg. against the standard antibiotic base.

`Cc1ncc([N+](=O)[O-])n1CCO` [Flagyl]: the “Parasitological Cure Negative/Total” value was 0/4 with E. Histolytica (oral 6.5 mg/kg/day, 1 day); 0/3 in the assay on E. Histolytica (oral 6.5 mg/kg/day, 3 days); 1/4 with E. Histolytica (oral 6.5 mg/kg/day, 6 days); 2/6 in the assay with E. Histolytica (oral 13 mg/kg/day, 6 days); 1/5 in the assay with E. Histolytica (oral 25 mg/kg/day, 6 days). Besides, the “A.D.I. (average degree of infection)” value in the assay with E. Histolytica (oral 6.5 mg/kg/day, 1 day) is 1.5; with E. Histolytica (oral 6.5 mg/kg/day, 3 days), 1.7; in the assay on E. Histolytica (oral 6.5 mg/kg/day, 6 days), 0.8; in the assay with E. Histolytica (oral 13 mg/kg/day, 6 days), 0.8; in the assay on E. Histolytica (oral 25 mg/kg/day, 6 days), 0.8.
Consider `NC[C@@H]1O[C@H](O[C@H]2[C@@H](O)[C@H](O[C@@H]3[C@@H](O)[C@H](N)C[C@H](N)[C@H]3O[C@H]3O[C@H](CO)[C@@H](O)[C@H](O)[C@H]3N)O[C@@H]2CO)[C@H](N)[C@@H](O)[C@@H]1O` [Paromomycin], for which the “Parasitological Cure Negative/Total” value was 1/7 in the assay with E. Histolytica (oral 3.5 mg/kg/day, 3 days); 1/6 in the assay with E. Histolytica (oral 3.5 mg/kg/day, 6 days); 0/4 in the assay with E. Histolytica (oral 6.5 mg/kg/day, 1 day); 1/5 in the assay with E. Histolytica (oral 6.5 mg/kg/day, 3 days); 2/4 in the assay on E. Histolytica (oral 6.5 mg/kg/day, 6 days); 0/7 in the assay on E. Histolytica (oral 10 mg/kg/day, 1 day). Further, the “Parasitological Cure Negative/Total” value in the assay with E. Histolytica (oral 10 mg/kg/day, 3 days) is 2/6; in the assay with E. Histolytica (oral 12 mg/kg/day, 6 days) it was 4/8; in the assay with E. Histolytica (oral 25 mg/kg/day, 6 days), 6/7. The “A.D.I. (average degree of infection)” value was found to be 1.9 in the assay with E. Histolytica (oral 3.5 mg/kg/day, 3 days); 1.5 with E. Histolytica (oral 3.5 mg/kg/day, 6 days); 1.0 with E. Histolytica (oral 6.5 mg/kg/day, 1 day); 1.0 in the assay on E. Histolytica (oral 6.5 mg/kg/day, 3 days); 1.3 in the assay on E. Histolytica (oral 6.5 mg/kg/day, 6 days); 2.1 in the assay with E. Histolytica (oral 10 mg/kg/day, 1 day). The “A.D.I. (average degree of infection)” value in the assay on E. Histolytica (oral 10 mg/kg/day, 3 days) is reported as 1.0; in the assay with E. Histolytica (oral 12 mg/kg/day, 6 days) it was 0.8; with E. Histolytica (oral 25 mg/kg/day, 6 days), 0.
`CN[C@@H]1[C@@H](O)[C@@H](O[C@@H]2[C@@H](O)[C@H](O[C@H]3O[C@H]([C@@H](C)O)[C@@H](O)[C@H](O)[C@H]3N)[C@@H](N)C[C@H]2N)OC[C@]1(C)O` [standard antibiotic sulfate salt]: the “potency of standard antibiotic sulfate salt” value in assay [1] is given as “about 750 mcg/mg”.
